Measurements as given in patent US20040097420A1, “Proteasome regulation of NF-kB activity” (Harvard College, priority 1994, published 2004).
Non-standard residues stand in square brackets, D forms with d. Residues, ends and D or L forms follow the SMILES beside them. ξ: configuration not given here. *: point of attachment. Tyr(3,5-Br2) = N[C@@H](Cc1cc(Br)c(O)c(Br)c1)C(=O)O; 1Nal = N[C@@H](Cc1cccc2ccccc12)C(=O)O; 2Nal = N[C@@H](Cc1ccc2ccccc2c1)C(=O)O; hPhe = N[C@@H](CCc1ccccc1)C(=O)O; tBuAla = CC(C)(C)C[C@H](N)C(=O)O; Cha = N[C@@H](CC1CCCCC1)C(=O)O; Ile(3ξ) = CCC(C)[C@H](N)C(=O)O; AllylGly = C=CC[C@H](N)C(=O)O; Nle = CCCC[C@H](N)C(=O)O; Pra = C#CC[C@H](N)C(=O)O; Nva = CCC[C@H](N)C(=O)O; Abu = CC[C@H](N)C(=O)O; Cbz = O=C(OCc1ccccc1)*; Boc = CC(C)(C)OC(=O)*

Key:
20S proteasome [1] = molecular target: T1, 20S proteasome (Oryctolagus cuniculus, UniProt G1T4Q9); assay: Inhibition of the 20S proteasome (kinetic experiments, Ki); type: biochemical, Rabbit; details: Table V, miscellaneous tripeptide aldehydes; 20S proteasome
T1 sequence (G1T4Q9 60-263): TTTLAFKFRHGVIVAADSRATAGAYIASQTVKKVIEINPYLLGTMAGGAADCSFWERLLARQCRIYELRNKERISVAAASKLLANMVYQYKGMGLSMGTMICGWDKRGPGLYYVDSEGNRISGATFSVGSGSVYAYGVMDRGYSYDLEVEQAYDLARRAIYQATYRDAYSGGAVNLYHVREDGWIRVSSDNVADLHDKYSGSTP
Source text: (§1) Tables I-III summarize results from kinetic experiments that measured the inhibition of the 20S and 26S proteasomes, as well as cathepsin B and calpain. In these tables, Ki values are reported, which are dissociation constants for the equilibrium that is established when enzyme and inhibitor interact to form the enzyme:inhibitor complex.
(§2) The substances and assay conditions are briefly summarized in the footnotes to Table I. MG 101 and MG 102, also known as Calpain Inhibitor I and II, were purchased from Calbiochem as catalogue products.
(§3) Table V summarizes data for the inhibition of the 20S proteasome by various tripeptide aldehyde inhibitors.

cathepsin B = molecular target: T2, cathepsin B (Bos taurus, UniProt P07688); assay: Inhibition of cathepsin B (Ki); type: biochemical; details: Bovine spleen; substrate Z-RR-AMC; [DTT] = 2 mM, [EDTA] = 5 mM, pH 5.5, 37° C.; read-out: Ki Cat B
T2 construct: Bovine spleen; Substrate: Z-RR-AMC; from tissue; host or cells: bovine spleen
Source text: as §1

20S Proteasome [2] = molecular target: T3, 20S Proteasome (Oryctolagus cuniculus, UniProt G1T4Q9); assay: Inhibition of the 20S proteasome (kinetic experiments, Ki); type: biochemical, Rabbit; design: Ki 20 S; substrate Suc-LLVY-AMC; details: Rabbit muscle, SDS-activated; substrate Suc-LLVY-AMC
T3 sequence (G1T4Q9 1-263): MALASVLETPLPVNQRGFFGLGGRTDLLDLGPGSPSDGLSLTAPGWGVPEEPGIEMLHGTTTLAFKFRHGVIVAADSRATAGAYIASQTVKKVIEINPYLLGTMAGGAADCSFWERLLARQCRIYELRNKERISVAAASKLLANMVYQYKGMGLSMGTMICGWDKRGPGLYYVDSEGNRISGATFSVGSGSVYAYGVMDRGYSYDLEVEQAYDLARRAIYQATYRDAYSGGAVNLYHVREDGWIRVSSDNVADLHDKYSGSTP
Source text: as §1, §2, §3

26S proteasome = molecular target: T4, 26S proteasome (Oryctolagus cuniculus, UniProt G1T4Q9); assay: Inhibition of the 26S proteasome (kinetic experiments, Ki); type: biochemical; details: Rabbit muscle; substrate Suc-LLVY-AMC; [Mg:ATP] = 2 mM
T4 sequence (G1T4Q9 1-263): T3 sequence (G1T4Q9 1-263)
Source text: as §1, §2

[3] = molecular target: calpain, 80 kD catalytic subunit; assay: Inhibition of calpain (Ki); type: biochemical; details: Rabbit muscle, substrate Suc-LLVY-AMC, [CaCl2] = 1 mM, [DTT] = 2 mM, pH 7.8, 20° C.
Source text: as §1

| SMILES | Ki (20S proteasome [1]) | Ki (cathepsin B) | Ki (20S Proteasome [2]) | Ki (26S proteasome) | Ki [3] |
| --- | --- | --- | --- | --- | --- |
| CCC(C)[C@@H](C=O)NC(=O)[C@H](CC(C)C)NC(=O)[C@H](CC(C)C)NC(=O)OCc1ccccc1 (stereo partly drawn) [MG 134] (Cbz-Leu-Leu-[Ile(3ξ)]-aldehyde) | 100 nM |  |  |  |  |
| CC(C)C[C@@H](C=O)NC(=O)[C@H](CC(C)C)NC(=O)[C@H](CC(C)C)NC(=O)OCc1ccccc1 [MG 132] (Cbz-Leu-Leu-Leu-aldehyde) | 9 nM |  |  |  |  |
| CC(C)C[C@@H](C=O)NC(=O)[C@H](CC(C)C)NC(=O)[C@H](CC(C)C)NC(=O)OC(C)(C)C [MG 155] (Boc-Leu-Leu-Leu-aldehyde) | 54 nM |  |  |  |  |
| COC(=O)C(=O)[C@H](Cc1ccccc1)NC(=O)[C@H](CC(C)C)NC(=O)[C@H](CC(C)C)NC(=O)OCc1ccccc1 [MG 113, Z-Leu-Leu-Phe-C(O)—OMe] |  | < 4 nM | 690 nM | 1300 nM | 45 nM |
| C=CC[C@@H](C=O)NC(=O)[C@H](CC(C)C)NC(=O)[C@H](CC(C)C)NC(=O)OCc1ccccc1 [MG 139] (Cbz-Leu-Leu-[AllylGly]-aldehyde) | 20 nM |  |  |  |  |
| CC(C)C[C@H](NC(=O)OCc1ccccc1)C(=O)N[C@@H](CC(C)C)C(=O)N[C@H](C=O)CCc1ccccc1 [MG 124] (Cbz-Leu-Leu-[hPhe]-aldehyde) | 59 nM |  |  |  |  |
| CCCC[C@@H](C=O)NC(=O)[C@H](CC(C)C)NC(=O)[C@H](CC(C)C)NC(=O)OCc1ccccc1 [MG 114, Z-Leu-Leu-Nle-H] (Cbz-Leu-Leu-[Nle]-aldehyde) |  | 7 nM | 47 nM | 120 nM | 12 nM |
| CCC[C@@H](C=O)NC(=O)[C@H](CC(C)C)NC(=O)[C@H](Cc1cccc2ccccc12)NC(=O)OCc1ccccc1 [MG 142] (Cbz-[1Nal]-Leu-[Nva]-aldehyde) | 0.3 nM |  |  |  |  |
| CC(C)C[C@H](NC(=O)OCc1ccccc1)C(=O)N[C@@H](CC(C)C)C(=O)N[C@H](C=O)C(C)C [MG 120] (Cbz-Leu-Leu-Val-aldehyde) |  | 36 nM | 94 nM | 560 nM | 14 nM |
| CC(C)C[C@H](NC(=O)OCc1ccccc1)C(=O)N[C@@H](CC(C)C)C(=O)N[C@H](C=O)Cc1ccc(O)cc1 [MG 131] (Cbz-Leu-Leu-Tyr-aldehyde) | 6 nM |  |  |  |  |
| CC(C)C[C@@H](C=O)NC(=O)[C@H](Cc1cccc2ccccc12)NC(=O)[C@H](Cc1ccc2ccccc2c1)NC(=O)OCc1ccccc1 [MG 167] (Cbz-[2Nal]-[1Nal]-Leu-aldehyde) | 0.015 nM |  |  |  |  |
| CC(C)C[C@H](NC(=O)OCc1ccccc1)C(=O)N[C@@H](CC(C)C)C(=O)N[C@H](C=O)CC(C)(C)C [MG 136] (Cbz-Leu-Leu-[tBuAla]-aldehyde) | 1000 nM |  |  |  |  |
| CC(C)C[C@H](NC(=O)OCc1ccccc1)C(=O)N[C@@H](CC(C)C)C(=O)N[C@H](C=O)Cc1cc(Br)c(O)c(Br)c1 [MG 160] (Cbz-Leu-Leu-[Tyr(3,5-Br2)]-aldehyde) | 51 nM |  |  |  |  |
| CC(C)C[C@@H](C=O)NC(=O)[C@H](C)NC(=O)[C@H](Cc1cccc2ccccc12)NC(=O)OCc1ccccc1 [MG 168] (Cbz-[1Nal]-Ala-Leu-aldehyde) | 0.49 nM |  |  |  |  |
| CCC[C@@H](C=O)NC(=O)[C@H](CC(C)C)NC(=O)[C@H](CC(C)C)NC(=O)OCc1ccccc1 [MG 115, Z-Leu-Leu-Nva-H] (Cbz-Leu-Leu-[Nva]-aldehyde) |  | 10 nM | 21 nM | 78 nM | 10 nM |
| CC[C@@H](C=O)NC(=O)[C@H](CC(C)C)NC(=O)[C@H](CC(C)C)NC(=O)OCc1ccccc1 [MG 119] (Cbz-Leu-Leu-[Abu]-aldehyde) |  | 18 nM | 50 nM | 280 nM | 15 nM |
| CC(C)C[C@H](NC(=O)OCc1ccccc1)C(=O)N[C@@H](CC(C)C)C(=O)N[C@H](C=O)CC1CCCCC1 [MG 129] (Cbz-Leu-Leu-[Cha]-aldehyde) | 60 nM |  |  |  |  |
| C#CC[C@@H](C=O)NC(=O)[C@H](CC(C)C)NC(=O)[C@H](CC(C)C)NC(=O)OCc1ccccc1 [MG 140] (Cbz-Leu-Leu-[Pra]-aldehyde) | 28 nM |  |  |  |  |
